Assay results published in patent US20180235900A1, “SUBCUTANEOUS RESERVOIR DEVICE AND METHOD OF MANUFACTURE” (Research Triangle Institute, priority 2017, published 2018).
Where a name gives a salt, the structure may show the parent alone.

Assay: TAF stability in excipients (chromatographic purity by HPLC)
Assay type: physicochemical
Conditions: excess TAF dissolved in excipient at 37° C., quantified by HPLC
Experimental: Excipients on the FDA GRAS list of acceptable compounds were evaluated for TAF stability and short-duration TAF release. Devices containing TAF in combination with selected GRAS excipients were evaluated in prototype devices 60 days, presented in FIG. 8. […] Tocopherol was not chosen because of the high release rate of TAF near 3.5 mg/day.

In the case of `CC(C)OC(=O)[C@H](C)N[P@](=O)(CO[C@H](C)Cn1cnc2c(N)ncnc21)Oc1ccccc1` [TAF std., Tenofovir Alafenamide Fumarate], the “Chromatographic Purity” value is reported as 99.88%.
